Experimental data as given in US7416848B2, “DNA encoding SNORF25 receptor” (H. Lundbeck A/S, priority 1999, dated 2008).

Tests used:
SNORF25 receptor = target: T1, SNORF25 receptor (Rattus norvegicus, UniProt Q7TQN8); assay: IP release in SNORF25-transfected CHO cells; type: cell-based
T1 construct: the entire coding region was amplified from Rin14b cell line cDNA and rat genomic DNA; expressed in transfected cells; host or cells: CHO cells, transient (electroporation)
T1 sequence (Q7TQN8 with tags, fused parts or gaps limits assumed): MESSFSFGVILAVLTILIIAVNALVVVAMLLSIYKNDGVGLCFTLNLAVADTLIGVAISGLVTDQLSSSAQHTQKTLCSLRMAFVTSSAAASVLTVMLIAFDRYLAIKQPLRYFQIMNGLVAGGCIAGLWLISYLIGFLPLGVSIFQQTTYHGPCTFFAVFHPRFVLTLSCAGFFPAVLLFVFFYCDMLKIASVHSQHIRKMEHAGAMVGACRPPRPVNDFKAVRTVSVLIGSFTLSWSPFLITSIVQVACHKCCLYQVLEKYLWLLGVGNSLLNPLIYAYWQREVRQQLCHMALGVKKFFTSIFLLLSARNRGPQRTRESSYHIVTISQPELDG
Procedure: In a 96 well microplate format assay, cells are plated at a density of 70,000 cells per well and allowed to incubate for 24 hours. The cells are then labeled with 0.5 μCi [^3H]-myo-inositol overnight at 37° C., 5% CO2. Immediately before the assay, the medium is removed and replaced with 90 μL of PBS containing 10 mM LiCl. The plates are then incubated for 15 min at 37° C., 5% CO2. Following the incubation, the cells are challenged with agonist (10 μl/well; 10× concentration) for 30 min at 37° C., 5% CO2. The challenge is terminated by the addition of 100 μL of 50% v/v trichloroacetic acid, followed by incubation at 4° C. for greater than 30 minutes. Total IPs are isolated from the lysate by ion exchange chromatography. Briefly, the lysed contents of the wells are transferred to a Multiscreen HV filter plate (Millipore) containing Dowex AG1-X8 (200–400 mesh, formate form). The filter plates are prepared adding 100 μL of Dowex AG1-X8 suspension (50% v/v, water: resin) to each well. The filter plates are placed on a vacuum manifold to wash or elute the resin bed. Each well is first washed 2 times with 200 μl of 5 mM myo-inositol. Total [^3H]inositol phosphates are eluted with 75 μl of 1.2M ammonium formate/0.1M formic acid solution into 96-well plates. 200 μL of scintillation cocktail is added to each well, and the radioactivity is determined by liquid scintillation counting. […]

serotonin 5-HT6 receptor = target: T2, serotonin 5-HT6 receptor (Homo sapiens, UniProt P50406); assay: cAMP in Cos-7 cells transfected with serotonin 5-HT6 receptor; type: cell-based; settings: 10 μM, serotonin 5-HT6 (FIG. 7)
T2 construct: expressed in transfected cells; host or cells: Cos-7 cells
T2 sequence (P50406 whole entry): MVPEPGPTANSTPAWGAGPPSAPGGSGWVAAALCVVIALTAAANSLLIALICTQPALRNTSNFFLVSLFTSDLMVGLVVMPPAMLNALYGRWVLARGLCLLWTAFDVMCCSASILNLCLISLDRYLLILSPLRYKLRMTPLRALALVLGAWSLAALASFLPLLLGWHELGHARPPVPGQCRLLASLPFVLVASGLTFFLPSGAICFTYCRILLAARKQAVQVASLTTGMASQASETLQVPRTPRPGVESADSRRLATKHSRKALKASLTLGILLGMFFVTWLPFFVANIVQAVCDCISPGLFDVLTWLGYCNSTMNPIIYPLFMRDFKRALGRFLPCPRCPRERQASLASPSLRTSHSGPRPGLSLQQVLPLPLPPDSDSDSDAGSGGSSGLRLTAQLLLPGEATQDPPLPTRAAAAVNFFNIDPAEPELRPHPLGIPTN
Procedure: A typical protocol for the electroporation method as applied to Cos-7 cells is described as follows. Cells to be used for transfection are split 24 hours prior to the transfection to provide flasks which are subconfluent at the time of transfection. The cells are harvested by trypsinization resuspended in their growth media and counted. 5×10^6 cells are suspended in 300 μl of DMEM and placed into an electroporation cuvette. 8 μg of receptor DNA plus 8 μg of any additional DNA needed (e.g. G protein expression vector, reporter construct, antibiotic resistance marker, mock vector, etc.) is added to the cell suspension, the cuvette is placed into a BioRad Gene Pulser and subjected to an electrical pulse (Gene Pulser settings: 0.25 kV voltage, 950 μF capacitance). Following the pulse, 800 μl of complete DMEM is added to each cuvette and the suspension transferred to a sterile tube. Complete medium is added to each tube to bring the final cell concentration to 1×10^5 cells/100 μl. […]
The receptor-mediated stimulation or inhibition of cyclic AMP (cAMP) formation may be assayed in cells expressing the receptors. […] The plates are stored at 4° C. for 15 min, and the cAMP content in the stopping solution is measured by radioimmunoassay. Radioactivity may be quantified using a gamma counter equipped with data reduction software. […]

IP release (SNORF25 receptor): not IP release
cAMP response (serotonin 5-HT6 receptor): no response
Structure (SMILES): CC1=C(/C=C/C(C)=C/C=C/C(C)=C/C(=O)O)C(C)(C)CCC1 [ATRA, all-trans-retinoic acid]
